“Also recorded” adds a separate entry of the source.
How the values were obtained:
ykt6 [1] = test: Ykt6 membrane shift analysis under lysosomal stress; assay type: cell-based, human
Method: (§1) FIGS. 3A, 3B, 3C, 3D, 3E, 3F, 3G, 3H, 3I, 3J, and 3K. Ykt6 is activated in response to lysosomal stress. 3A) Ykt6 membrane shift analysis in bafA1 (200 nM, 2 hrs) or NH4Cl (1M, 12 hrs) treated iPSn (d60). CBB, coomassie brilliant blue, (BafA1 and NH4Cl are indicated, n=7-10). 3B) Co-IP of GFP-ykt6 and bet1 in control iPSn (d60) treated with bafA1 (n=3). 3C) Ykt6 and GM130 immunofluorescence analysis of bafA1-treated H4 cells (n=9). Scale bars=10 um. 3D) Ykt6 membrane shift analysis in CBE-treated SH-SY5Y cells (50 μM, 2d, n=3). 3E) Co-IP of GFP-ykt6, bet1 and STX5 in CBE-treated SHSY5Y cells (n=5). 3F) Ykt6 membrane shift analysis in control or Gaucher disease (GD) iPSn (d100). a-Syn was knocked-out (SNCA KO) in GD lines by CRISPR/Cas9. Two exposures are included to better visualize cyt and mem ykt6 (n=4). 3G) Ykt6 membrane shift analysis in lenti-infected SH-SY5Y cells (moi3, dpi 10) (n=3). C, cytosolic; N, nuclear. 3H) GCase maturation was assessed by endo H digest in lenti-infected SH-SY5Y cells. Empty vector (vect), scrambled (scrb). 3I) Control iPSn were infected as in 3H and analyzed for GCase maturation (n=3). 3J) Live cell GCase activity in lenti-infected iPSn (n=4). 3K) Lysosomal mass measurement in control iPSn (n=4). Values are the mean+/−SEM, *p<0.05.
FIGS. 12A, 12B, 12C, 12D, 12E, and 12F. The effects of ykt6 knock-down on the lysosomal system and characterization of GD-SNCA KO iPSCs. […] 12B) Protein secretion was measured by radioactive pulse-chase from the same culture wells that correspond to proteolysis data of FIG. 2H. 12C) Control iPSn were treated with 50 mM sucrose for 7 days followed by membrane shift analysis of ykt6. 12D) Control iPSn were infected with scrambled (S) or ykt6 shRNA (KD) and treated with or without sucrose as done in panel B. LAMP1 levels were analyzed by western blot. GAPDH is a loading control (n=4). 12E) Cultures were treated as described in panel C, and analyzed for GCase maturation by western blot analysis (n=4). For all quantifications, values are the mean+/−SEM, *p<0.05. 12F) Analysis of off-target edits by CRISPR/Cas9 in SNCA knock out (KO) Gaucher disease iPSCs. The targeting strategy has been previously published (Zunke et al., 2018). Genomic sequences showing the closest homology to SNCA were analyzed for mis-matched mutations by T7 digestion, and compared to the parental GD line. PCR amplicons were analyzed by agarose gel electrophoresis stained with ethidium bromide. For all quantifications, values are the mean+/−SEM, *p<0.05. Student's T-test was used in panel 12A, while ANOVA with Tukey's post-hoc test was used in panels 12D and 12E.
Separation of lysates into cytosol and membrane fractions. […]

ykt6 SNARE complexes = test: Co-IP of GFP-ykt6 SNARE complexes under lysosomal stress; assay type: cell-based, human
Method: as §1, with “Empty vector (vect), scrambled (scrb).” left out, “3J) Live cell GCase activity in lenti-infected iPSn (n=4). 3K) Lysosomal mass measurement in control iPSn (n=4). Values are the mean+/−SEM, *p<0.05.” left out
To co-IP ykt6 SNARE assemblies, approximately 106-107 cells expressing GFP-tagged YKT6, were harvested in 1 ml of PBS, scraped off the plate and transferred to centrifuge tubes. […] Eluates were analyzed by western blot as described below. The samples were not analyzed in a blinded manner.

[2] = target: T1, ykt6 SNARE binding (STX5) (Homo sapiens, UniProt O15498); test: Co-IP of GFP-ykt6 and STX5 in Hela cells; assay type: cell-based; settings: Hela cells stably expressing GFP-ykt6; 2 days
T1 construct: expressed in transfected cells
T1 sequence (O15498 1-195 limits assumed): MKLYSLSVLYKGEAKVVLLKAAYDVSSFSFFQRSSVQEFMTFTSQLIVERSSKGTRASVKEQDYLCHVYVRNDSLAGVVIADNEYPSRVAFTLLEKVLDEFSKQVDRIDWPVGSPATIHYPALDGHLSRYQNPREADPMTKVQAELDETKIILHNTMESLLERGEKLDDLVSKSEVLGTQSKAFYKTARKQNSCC

ykt6 [3] = target: T2, ykt6 (Homo sapiens, UniProt O15498); test: GFP-ykt6 / GM130 colocalization in Hela cells; assay type: cell-based; settings: Hela cells stably expressing GFP-ykt6; 2 days, various concentrations
T2 construct: expressed in transfected cells
T2 sequence (O15498 1-198): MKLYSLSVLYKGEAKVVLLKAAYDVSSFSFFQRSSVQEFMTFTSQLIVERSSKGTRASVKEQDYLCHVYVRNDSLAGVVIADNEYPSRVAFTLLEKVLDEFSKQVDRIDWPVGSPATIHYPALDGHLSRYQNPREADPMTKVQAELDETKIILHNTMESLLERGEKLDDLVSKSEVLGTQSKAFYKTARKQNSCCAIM
Method: FIG. 19. […] A) Hela cells stably expressing GFP-ykt6 (green) were treated with #20 for 2 days at various concentrations, fixed, stained with Golgi marker GM130 (red), and colocalization was quantified by Pearson's correlation. Each plot represents an individual cell, from 3 culture wells. LNK-754 was used at 10 nM. B) Stable transfected Hela cells were incubated as in A followed by biochemical fractionation/western blot to detect cytosolic (cyt) or membrane (mem) ykt6. The assay was repeated 3 times, representative blot shown.
We tested the activity of Compound #20 ((3R)-1-[(1-{[1-(4,5-dimethylthiophene-2-carbonyl)piperidin-4-yl]methyl}-1H-1,2,3-triazol-4-yl)methyl]pyrrolidin-3-amine) regarding activation of ykt6 in Hela cells. (See FIG. 19). Hela cells stably expressing GFP-ykt6 were treated with Compound #20 for 2 days at various concentrations, fixed, stained with Golgi marker GM130, and colocalization was quantified by Pearson's correlation.

Structure (SMILES): O[C@H]1[C@H](O)[C@@H](O)[C@@H]2O[C@@H]2[C@@H]1O [CBE]
- ykt6 cytosol/membrane distribution (ykt6 [1]; SH-SY5Y cells, 50 μM, 2d): caused ykt6 to shift into membranes
- ykt6 SNARE complexes (co-IP GFP-ykt6, bet1 and STX5) (ykt6 SNARE complexes; SHSY5Y cells): increased ykt6 SNARE complexes

Structure (SMILES): Cc1cc(C(=O)N2CCC(Cn3cc(CN4CC[C@@H](N)C4)nn3)CC2)sc1C [Compound #20, (3R)-1-[(1-{[1-(4,5-dimethylthiophene-2-carbonyl)piperidin-4-yl]methyl}-1H-1,2,3-triazol-4-yl)methyl]pyrrolidin-3-amine]
- SNARE binding (STX5 co-IP) [2]: increases SNARE binding
- ykt6 activity (GFP-ykt6 colocalization with GM130, Pearson's correlation) (ykt6 [3]): can activate ykt6; also recorded: increases ykt6 activity

Structure (SMILES): Cl.N [NH4Cl]
- ykt6 cytosol/membrane distribution (ykt6 [1]; healthy control iPSn (d60), 1M, 12 hrs): caused a shift of ykt6 from the cytosol into membrane fractions

Structure (SMILES): CO/C1=C\C(C)=C\[C@@H](C)[C@@H](O)[C@@H](C)C/C(C)=C/C=C/[C@H](OC)[C@@H]([C@@H](C)[C@@H](O)[C@H](C)[C@@]2(O)C[C@@H](O)[C@H](C)[C@@H](C(C)C)O2)OC1=O [bafilomycin A1]
- ykt6 cytosol/membrane distribution (ykt6 [1]; healthy control iPSn (d60), 200 nM, 2 hrs): caused a shift of ykt6 from the cytosol into membrane fractions
- assembly of ykt6 ER-Golgi SNARE complexes (co-IP GFP-ykt6 and bet1) (ykt6 SNARE complexes; control iPSn (d60)): promoted the assembly of ykt6 ER-Golgi SNARE complexes

Structure (SMILES): OC[C@H]1O[C@@](CO)(O[C@H]2O[C@H](CO)[C@@H](O)[C@H](O)[C@H]2O)[C@@H](O)[C@@H]1O [sucrose]
- ykt6 cytosol/membrane distribution (ykt6 [1]; control iPSn, 50 mM, 7 days): caused ykt6 to shift into membranes
